# Laboratory results from patent US11491245B2, “Gadolinium chelate compounds for use in magnetic resonance imaging” (BAYER PHARMA AKTIENGESELLSCHAFT, priority 2015, dated 2022).
# Like-named read-outs stand apart in the source and are kept apart here.
# Columns and labels:
# [1] = Whole body imaging (dynamic MRI and tissue Gd concentration); type: in vivo, male New Zealand white rabbits; details: rabbits, tissues 30 min p.i., FIGS. 8A and 8B
# Protocol: The study was performed with a clinical whole body MRI equipped with body spine coil, abdomen flex coil, neck coil (1.5 T Magnetom Avanto, Siemens Healthcare, Erlangen, Germany). The study was done using male New Zealand white rabbits (weight 2.3-3.0 kg, n=8, Charles River Kisslegg). All animals were initially anesthetized using a body weight-adjusted intramuscular injection of a mixture (1+2) of xylazine hydrochloride (20 mg/mL, Rompun 2%, Bayer Vital GmbH, Leverkusen, Germany) and ketamine hydrochloride (100 mg/mL, Ketavet, Pfizer, Pharmacia GmbH, Berlin, Germany) using 1 mL/kg body weight. The continuous anesthesia of the intubated animals (endotracheal tube, Rueschelit Super Safe Clear, cuff 3.0 mm, Willy Ruesch AG, Kernen, Germany) was achieved by the intravenous injection of 0.9 mg propofol per kilogram per hour (10 mg/mL, Propofol-Lipuro 1%, B. Braun Melsungen AG, Melsungen, Germany). The continuous intravenous injection was performed using a MR infusion system (Continuum MR Infusion System, Medrad Europe B. V., A E Beek, Germany). The tracheal respiration (SV 900C, Maquet, Rastatt, Germany) was performed with 55% oxygen, forty breaths per minute and a breathing volume of 7 mL per kilogram body weight per minute.
# Dynamic MRI measurements up to 22 min post injection with subsequent quantitative signal analysis (Siemens Mean Curve software (SYNGO Task Card, Siemens Healthcare, Erlangen, Germany), were performed for three different regions head and neck (brain, tongue, chops muscle, neck muscle), abdomen (spleen, liver, blood) and pelvis (extremity muscle). For the three different slice groups a 3D T1-weighted Vibe sequence was used (TR=4.74 ms, TE=2.38, flip=10°, 1:29 min). The dynamic measurements of the three slice groups (Head/Neck: 1:29 min, Abdomen: 0:49 min, Pelvis: 1:16 min) were done up to 22 min post injection: 1. Head/Neck: baseline, 1.4, 5.2, 8.9, 12.8, 16.5, 20.4 min, 2. Abdomen: baseline, 0.5, 4.3, 8.1, 11.9, 15.7, 19.5 min and 3. Pelvis: baseline, 2.9, 6.7, 10.5, 14.4, 18.1, 22.0 min. At 30 min post injection the animals were sacrificed and the Gd concentrations were measured using Inductively Coupled Plasma Mass Spectroscopy (ICP-MS Agilent 7500a, Waldbronn, Germany) in the following tissue samples: blood, brain, tongue, liver and extremity muscle. A quantitative image evaluation was performed for the 30 min time point p.i. due to the combination of the quantitative ICP-MS Gadolinium concentrations and the MRI region-of-interest analysis.
# [2] = Pharmacokinetic parameters in rats (blood plasma kinetic); type: in vivo, male rats (Han-Wistar); details: male rats, 0.1 mmol Gd/kg bolus tail vein, mean
# Protocol: Pharmacokinetic parameters of the compound of Example 3 were determined in male rats (Han-Wistar, 220-230 g, n=3). The compound was administered as a sterile aqueous solution (52.5 mmol Gd/L) as a bolus in the tail vein of the animals. The dose was 0.1 mmol Gd/kg. Blood was sampled 1, 3, 5, 10, 15, 30, 60, 90, 120, 240, 360, 480 and 1440 min post injection and the Gd concentration was determined by Inductively Coupled Plasma Mass Spectroscopy (ICP-MS Agilent 7500a, Waldbronn, Germany). The blood level was converted to plasma concentrations by division by 0.625 (plasma fraction of rat blood, assuming strictly extracellular distribution). As a control, 3 animals were treated in the same way with Gadovist®, a low molecular weight contrast agent.
# The fit of the obtained data to a three compartment model (Phoenix—WinNonlin) yielded the pharmacokinetic parameters which are shown in Table 3.
# [3] = 37° C., cited from earlier work
# [4] = Gadolinium release after the addition of zinc and phosphate (transmetallation); details: phosphate buffer pH 7.00, 2.5 mmol/L gadolinium complex, 2.5 mmol/L ZnCl2, 37° C., up to 72 h, FIG. 2
# Protocol: The technique is based on measurement of the evolution of the water proton paramagnetic longitudinal relaxation rate in phosphate buffer (pH 7.00, 26 mmol/L, KH2PO4 Merck, Hessen, Germany) containing 2.5 mmol/L gadolinium complex and 2.5 mmol/L ZnCl2 Sigma-Aldrich, Munich, Germany). […] The mixture was vigorously stirred, and 300 μL were taken out for the relaxometric study at 0 min, 60 min, 120 min, 3 h, 4 h, 5 h, 24 h, 48 h and 72 h. The measurements were performed on a MiniSpec mq60 spectrometer (Bruker Analytik, Karlsruhe, Germany) at 60 MHz and 37° C.
smiles,measurement,setting,value
"O=C([O-])CN1CCN(CC(=O)[O-])CCN([C@H](CO)[C@H](O)CO)CCN(CC(=O)[O-])CC1.[Gd+3] (racemic) [Reference compound 1, gadobutrol, reference compound]",slope of the linear regression between tissue gadolinium concentration and MRI signal change,[1],1.0
same,AUC∞ Area under the curve (to infinity),[2],11500 µmol·min/L
same,MRT Mean residence time,[2],30.1 min
same,"V1 + V2 Volume, compartments V1 + V2",[2],0.25 L/kg
same,"V2 Volume, compartment V2",[2],0.12 L/kg
same,"Vc (V1) Volume, central compartment V1",[2],0.14 L/kg
same,"Vd,ss Volume of distribution at steady state",[2],0.28 L/kg
same,"t½ α Half-life, compartment V1",[2]; three compartment model,1.6 min
same,"t½ β Half-life, compartment V2",[2]; three compartment model,20.5 min
same,"t½ γ Half-life, compartment V3",[2]; three compartment model,232 min
same,r1 human plasma,"[3]; reference compounds (marked ^), plasma, 3.0 T, average ± standard deviation",5.0 ± 0.3 L/mmol/s
same,r1 water,"[3]; reference compounds (marked ^), 3.0 T, average ± standard deviation",3.2 ± 0.3 L/mmol/s
same,r1 FBS,"[3]; reference compounds, bovine plasma, 1.5 T, from Rohrer et al.",5.2 L/mmol/s
same,r1 water,"[3]; reference compounds, 1.5 T, from Rohrer et al.",3.3 L/mmol/s
same,stability against transmetallation (relative longitudinal relaxation rate R1p(t)/R1p(0) versus time),[4],high stability
